Laboratory results reported in paper PMC11233931, “Remodeling tumor‐associated macrophage for anti‐cancer effects by rational design of irreversible inhibition of mitogen‐activated protein kinase‐activated protein kinase 2” (MedComm, 2024).
Where two headings read alike, the source gives them in different places.

Columns and labels:
Experiment in all cases: Eurofins kinase selectivity profile against 380 other human recombinant kinases (Table S2)
Type in all cases: biochemical
[1] = molecular target: T1, 380 human recombinant protein kinases (Homo sapiens, UniProt Q06187); conditions: BTK(h), read-out: Inhibition rate
T1 construct: purchased Eurofins (Celle Lévescault)
Procedure, shortened: (§1)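 Commercial selectivity screen of the test compound against a panel of 380 human recombinant protein kinases, run by an outside contractor at several compound concentrations to check whether its potency was specific for MK2.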

[2] = molecular target: T2, 380 human recombinant protein kinases (Homo sapiens, UniProt Q96PN8); conditions: TSSK3(h), read-out: Inhibition rate (%)
T2 construct: purchased Eurofins (Celle Lévescault)
T2 sequence (Q96PN8 1-268): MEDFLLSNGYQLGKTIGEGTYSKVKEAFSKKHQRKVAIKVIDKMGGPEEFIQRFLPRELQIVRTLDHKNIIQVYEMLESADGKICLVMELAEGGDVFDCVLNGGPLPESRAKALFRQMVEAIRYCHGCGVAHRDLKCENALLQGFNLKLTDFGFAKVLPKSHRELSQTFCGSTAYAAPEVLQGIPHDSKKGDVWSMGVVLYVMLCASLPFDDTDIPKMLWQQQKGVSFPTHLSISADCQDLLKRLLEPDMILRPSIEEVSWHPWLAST
Procedure, shortened: as §1

[3] = molecular target: T3, 380 human recombinant protein kinases (Homo sapiens, UniProt Q7KZI7); conditions: PAR-1Bα(h), read-out: Inhibition rate
T3 construct: purchased Eurofins (Celle Lévescault)
T3 sequence (Q7KZI7 whole entry): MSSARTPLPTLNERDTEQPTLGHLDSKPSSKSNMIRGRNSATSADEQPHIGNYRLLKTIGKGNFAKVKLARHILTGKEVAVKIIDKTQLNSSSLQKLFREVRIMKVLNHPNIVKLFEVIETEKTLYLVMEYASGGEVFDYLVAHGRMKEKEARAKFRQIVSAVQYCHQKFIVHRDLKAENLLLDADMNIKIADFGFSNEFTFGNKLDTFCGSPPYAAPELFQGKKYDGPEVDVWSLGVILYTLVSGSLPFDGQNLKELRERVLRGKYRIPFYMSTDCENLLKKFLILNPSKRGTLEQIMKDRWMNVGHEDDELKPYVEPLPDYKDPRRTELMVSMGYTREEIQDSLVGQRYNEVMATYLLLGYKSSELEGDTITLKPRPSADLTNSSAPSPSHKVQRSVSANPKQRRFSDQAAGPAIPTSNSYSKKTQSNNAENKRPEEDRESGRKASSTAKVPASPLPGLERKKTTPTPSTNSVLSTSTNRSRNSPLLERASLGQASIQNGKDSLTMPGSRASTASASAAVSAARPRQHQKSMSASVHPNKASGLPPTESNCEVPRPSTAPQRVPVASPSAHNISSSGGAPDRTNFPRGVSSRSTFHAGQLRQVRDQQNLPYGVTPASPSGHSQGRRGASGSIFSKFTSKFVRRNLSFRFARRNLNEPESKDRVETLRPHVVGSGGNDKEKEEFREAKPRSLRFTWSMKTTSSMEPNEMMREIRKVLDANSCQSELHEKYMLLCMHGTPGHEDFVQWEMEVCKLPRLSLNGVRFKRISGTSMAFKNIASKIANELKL
Procedure, shortened: as §1

[4] = molecular target: T4, 380 human recombinant protein kinases (Homo sapiens, UniProt Q9NQU5); conditions: PAK6(h), read-out: Inhibition rate
T4 construct: purchased Eurofins (Celle Lévescault)
T4 sequence (Q9NQU5 whole entry): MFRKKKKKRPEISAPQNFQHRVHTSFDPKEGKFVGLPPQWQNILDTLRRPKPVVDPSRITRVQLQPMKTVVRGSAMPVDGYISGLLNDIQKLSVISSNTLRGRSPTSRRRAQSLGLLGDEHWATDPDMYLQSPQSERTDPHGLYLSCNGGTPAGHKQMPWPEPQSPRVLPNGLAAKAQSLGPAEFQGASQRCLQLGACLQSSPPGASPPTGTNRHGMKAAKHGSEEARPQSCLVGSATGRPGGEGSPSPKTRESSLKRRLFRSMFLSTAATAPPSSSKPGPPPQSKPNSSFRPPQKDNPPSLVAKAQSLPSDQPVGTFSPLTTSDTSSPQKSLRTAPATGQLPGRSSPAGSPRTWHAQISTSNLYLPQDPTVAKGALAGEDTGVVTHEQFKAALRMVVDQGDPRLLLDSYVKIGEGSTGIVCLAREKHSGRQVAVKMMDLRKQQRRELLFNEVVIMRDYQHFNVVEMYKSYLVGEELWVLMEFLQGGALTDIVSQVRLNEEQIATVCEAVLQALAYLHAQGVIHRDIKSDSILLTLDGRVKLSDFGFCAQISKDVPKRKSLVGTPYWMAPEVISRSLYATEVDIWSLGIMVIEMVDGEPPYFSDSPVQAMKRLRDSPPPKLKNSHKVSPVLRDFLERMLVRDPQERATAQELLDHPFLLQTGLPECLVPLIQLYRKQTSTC
Procedure, shortened: as §1

[5] = molecular target: T5, 380 human recombinant protein kinases (Homo sapiens, UniProt Q9Y4K4); conditions: MAP4K5(h), read-out: Inhibition rate
T5 construct: purchased Eurofins (Celle Lévescault)
T5 sequence (Q9Y4K4 whole entry): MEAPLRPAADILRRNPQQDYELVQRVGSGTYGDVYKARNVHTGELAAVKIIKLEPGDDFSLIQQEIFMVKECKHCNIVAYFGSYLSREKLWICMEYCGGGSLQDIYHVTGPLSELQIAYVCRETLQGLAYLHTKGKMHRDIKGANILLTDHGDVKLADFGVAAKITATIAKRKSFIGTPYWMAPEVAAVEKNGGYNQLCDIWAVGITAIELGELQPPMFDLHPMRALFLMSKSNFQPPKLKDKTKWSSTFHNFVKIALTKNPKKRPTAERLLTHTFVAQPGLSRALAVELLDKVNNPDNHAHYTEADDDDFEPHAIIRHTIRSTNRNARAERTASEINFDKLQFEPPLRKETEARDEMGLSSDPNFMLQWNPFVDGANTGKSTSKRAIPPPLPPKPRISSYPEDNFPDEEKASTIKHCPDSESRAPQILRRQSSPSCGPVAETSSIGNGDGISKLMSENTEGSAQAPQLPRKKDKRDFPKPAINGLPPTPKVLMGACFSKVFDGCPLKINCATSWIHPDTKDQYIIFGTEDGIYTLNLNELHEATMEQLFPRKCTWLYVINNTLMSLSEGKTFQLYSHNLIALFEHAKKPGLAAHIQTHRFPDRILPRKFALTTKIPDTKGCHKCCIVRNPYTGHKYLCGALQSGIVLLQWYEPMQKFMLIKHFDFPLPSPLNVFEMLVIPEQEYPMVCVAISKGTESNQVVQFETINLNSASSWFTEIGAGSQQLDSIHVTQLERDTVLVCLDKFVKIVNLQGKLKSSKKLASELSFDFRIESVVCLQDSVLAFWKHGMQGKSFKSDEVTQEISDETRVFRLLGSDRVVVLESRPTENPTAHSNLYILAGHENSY
Procedure, shortened: as §1

[6] = molecular target: T6, 380 human recombinant protein kinases (Homo sapiens, UniProt Q05513); conditions: PKCζ(h), read-out: Inhibition rate
T6 construct: purchased Eurofins (Celle Lévescault)
T6 sequence (Q05513 1-592): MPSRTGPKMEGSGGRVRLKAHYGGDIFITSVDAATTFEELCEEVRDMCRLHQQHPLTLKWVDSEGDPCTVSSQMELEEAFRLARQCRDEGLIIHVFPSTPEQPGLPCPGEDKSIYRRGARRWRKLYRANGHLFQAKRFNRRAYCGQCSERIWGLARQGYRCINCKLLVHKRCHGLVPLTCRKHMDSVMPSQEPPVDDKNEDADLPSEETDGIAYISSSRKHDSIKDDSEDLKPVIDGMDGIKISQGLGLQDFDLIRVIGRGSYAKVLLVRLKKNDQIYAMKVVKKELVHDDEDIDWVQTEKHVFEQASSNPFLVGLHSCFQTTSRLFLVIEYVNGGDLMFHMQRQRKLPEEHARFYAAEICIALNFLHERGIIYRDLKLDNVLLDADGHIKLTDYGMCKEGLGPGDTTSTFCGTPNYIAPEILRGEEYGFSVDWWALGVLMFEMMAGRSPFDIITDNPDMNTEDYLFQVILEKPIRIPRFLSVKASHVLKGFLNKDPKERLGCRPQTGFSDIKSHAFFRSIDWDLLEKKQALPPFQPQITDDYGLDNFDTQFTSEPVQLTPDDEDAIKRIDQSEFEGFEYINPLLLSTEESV
Procedure, shortened: as §1

[7] = molecular target: T7, 380 human recombinant protein kinases (Homo sapiens, UniProt Q9HC98); conditions: NEK6(h), read-out: Inhibition rate
T7 construct: purchased Eurofins (Celle Lévescault)
T7 sequence (Q9HC98 whole entry): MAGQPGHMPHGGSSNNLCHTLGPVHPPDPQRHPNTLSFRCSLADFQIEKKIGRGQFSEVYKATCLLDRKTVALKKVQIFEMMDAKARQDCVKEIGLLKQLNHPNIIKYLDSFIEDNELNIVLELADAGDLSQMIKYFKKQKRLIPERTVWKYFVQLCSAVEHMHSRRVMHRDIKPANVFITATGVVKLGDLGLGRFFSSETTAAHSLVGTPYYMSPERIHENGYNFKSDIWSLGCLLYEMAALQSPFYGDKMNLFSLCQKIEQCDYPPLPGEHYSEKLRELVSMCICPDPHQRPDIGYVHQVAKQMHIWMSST
Procedure, shortened: as §1

[8] = molecular target: T8, 380 human recombinant protein kinases (Homo sapiens, UniProt O96013); conditions: PAK4(h), read-out: Inhibition rate
T8 construct: purchased Eurofins (Celle Lévescault)
T8 sequence (O96013 whole entry): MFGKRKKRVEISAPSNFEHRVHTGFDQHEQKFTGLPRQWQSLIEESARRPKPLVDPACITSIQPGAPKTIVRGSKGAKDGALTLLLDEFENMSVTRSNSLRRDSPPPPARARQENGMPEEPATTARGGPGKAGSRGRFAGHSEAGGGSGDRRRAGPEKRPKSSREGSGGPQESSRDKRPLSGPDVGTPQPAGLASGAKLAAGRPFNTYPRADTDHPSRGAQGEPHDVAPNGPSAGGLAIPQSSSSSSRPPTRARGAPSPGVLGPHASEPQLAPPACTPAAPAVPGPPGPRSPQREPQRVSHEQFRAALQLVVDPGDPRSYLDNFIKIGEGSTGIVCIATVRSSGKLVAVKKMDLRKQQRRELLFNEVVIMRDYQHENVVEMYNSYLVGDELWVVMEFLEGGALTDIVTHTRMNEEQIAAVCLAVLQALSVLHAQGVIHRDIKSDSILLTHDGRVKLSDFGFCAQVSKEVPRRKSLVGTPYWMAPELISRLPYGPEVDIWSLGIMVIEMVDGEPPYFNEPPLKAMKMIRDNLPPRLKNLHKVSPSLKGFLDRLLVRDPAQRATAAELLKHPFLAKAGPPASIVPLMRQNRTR
Procedure, shortened: as §1

[9] = molecular target: T9, 380 human recombinant protein kinases (Homo sapiens, UniProt P06493); conditions: CDK1/cyclinB(h), read-out: Inhibition rate
T9 construct: purchased Eurofins (Celle Lévescault)
T9 sequence (P06493 whole entry): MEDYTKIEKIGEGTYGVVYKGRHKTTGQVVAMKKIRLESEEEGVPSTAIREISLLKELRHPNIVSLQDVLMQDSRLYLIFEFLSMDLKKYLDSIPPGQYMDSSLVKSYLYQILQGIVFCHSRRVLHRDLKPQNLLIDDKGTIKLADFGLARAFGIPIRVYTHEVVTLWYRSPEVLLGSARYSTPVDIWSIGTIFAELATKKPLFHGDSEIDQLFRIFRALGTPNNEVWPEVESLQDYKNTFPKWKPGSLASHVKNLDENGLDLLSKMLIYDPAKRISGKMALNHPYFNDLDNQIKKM
Procedure, shortened: as §1

[10] = molecular target: T10, 380 human recombinant protein kinases (Homo sapiens, UniProt Q9UIK4); conditions: DAPK2(h), read-out: Inhibition rate
T10 construct: purchased Eurofins (Celle Lévescault)
T10 sequence (Q9UIK4 whole entry): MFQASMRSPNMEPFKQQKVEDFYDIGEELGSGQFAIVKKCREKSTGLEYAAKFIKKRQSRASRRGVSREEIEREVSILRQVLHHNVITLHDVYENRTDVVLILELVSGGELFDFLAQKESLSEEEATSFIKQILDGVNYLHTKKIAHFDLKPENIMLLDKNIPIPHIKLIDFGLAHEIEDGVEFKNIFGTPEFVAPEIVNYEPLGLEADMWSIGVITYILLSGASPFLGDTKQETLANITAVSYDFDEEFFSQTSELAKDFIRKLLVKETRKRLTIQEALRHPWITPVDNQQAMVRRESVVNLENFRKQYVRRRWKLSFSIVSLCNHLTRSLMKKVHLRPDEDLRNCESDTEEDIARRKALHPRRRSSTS
Procedure, shortened: as §1

[11] = molecular target: T11, 380 human recombinant protein kinases (Homo sapiens, UniProt Q13882); conditions: BRK(h), read-out: Inhibition rate
T11 construct: purchased Eurofins (Celle Lévescault)
T11 sequence (Q13882 whole entry): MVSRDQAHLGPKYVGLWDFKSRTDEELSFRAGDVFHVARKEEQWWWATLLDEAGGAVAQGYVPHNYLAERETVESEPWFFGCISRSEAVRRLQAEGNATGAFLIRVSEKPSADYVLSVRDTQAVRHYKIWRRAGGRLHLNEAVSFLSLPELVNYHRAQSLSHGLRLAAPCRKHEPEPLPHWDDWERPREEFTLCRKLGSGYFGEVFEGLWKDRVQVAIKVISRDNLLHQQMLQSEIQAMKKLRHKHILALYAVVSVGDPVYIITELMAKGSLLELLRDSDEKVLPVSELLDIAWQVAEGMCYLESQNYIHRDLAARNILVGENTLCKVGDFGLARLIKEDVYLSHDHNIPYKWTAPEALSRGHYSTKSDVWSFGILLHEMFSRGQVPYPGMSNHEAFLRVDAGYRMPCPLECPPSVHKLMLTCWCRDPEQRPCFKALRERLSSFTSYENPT
Procedure, shortened: as §1

[12] = molecular target: T12, 380 human recombinant protein kinases (Homo sapiens, UniProt Q5MAI5); conditions: CDKL4(h), read-out: Inhibition rate
T12 construct: purchased Eurofins (Celle Lévescault)
Procedure, shortened: as §1

[13] = molecular target: T13, 380 human recombinant protein kinases (Homo sapiens, UniProt P78362); conditions: SRPK2(h), read-out: Inhibition rate (%)
T13 construct: purchased Eurofins (Celle Lévescault)
T13 sequence (P78362 whole entry): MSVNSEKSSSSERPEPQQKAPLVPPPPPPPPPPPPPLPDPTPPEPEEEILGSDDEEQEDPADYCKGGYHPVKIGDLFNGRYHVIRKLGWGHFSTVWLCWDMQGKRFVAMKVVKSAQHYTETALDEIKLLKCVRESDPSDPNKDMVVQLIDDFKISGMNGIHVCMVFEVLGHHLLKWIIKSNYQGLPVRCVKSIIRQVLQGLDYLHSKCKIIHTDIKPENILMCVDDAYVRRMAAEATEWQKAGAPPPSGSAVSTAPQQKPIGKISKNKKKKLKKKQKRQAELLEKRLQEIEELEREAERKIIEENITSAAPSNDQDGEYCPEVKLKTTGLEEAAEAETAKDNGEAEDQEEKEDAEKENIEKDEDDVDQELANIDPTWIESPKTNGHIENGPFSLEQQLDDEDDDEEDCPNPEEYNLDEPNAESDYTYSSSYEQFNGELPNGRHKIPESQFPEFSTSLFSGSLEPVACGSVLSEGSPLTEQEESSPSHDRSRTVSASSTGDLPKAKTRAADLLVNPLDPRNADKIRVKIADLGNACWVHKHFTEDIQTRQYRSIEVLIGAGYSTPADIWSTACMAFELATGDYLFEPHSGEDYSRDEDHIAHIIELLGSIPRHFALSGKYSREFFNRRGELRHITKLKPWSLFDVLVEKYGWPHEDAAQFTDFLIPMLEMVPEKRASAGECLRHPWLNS
Procedure, shortened: as §1

[14] = molecular target: T14, 380 human recombinant protein kinases (Homo sapiens, UniProt P42345); conditions: read-out: Inhibition rate; for inhibition at 0.01 µM: 10 nM; for inhibition at 0.1 µM: 100 nM; for inhibition at 1 µM: 1000 nM
T14 construct: purchased Eurofins (Celle Lévescault)
Procedure, shortened: as §1

For `C=CC(=O)Nc1cc(-c2cc(-c3cc4c([nH]3)CCNC4=O)ccn2)ccc1OC(F)(F)F` [compound 11], the inhibition at 0.01 µM ([1]; 10 nM) was -4%, the inhibition at 0.1 µM ([1]; 100 nM) was 10% and the inhibition at 1 µM ([1]; 1000 nM) was 17%. The inhibition at 0.01 µM ([2]; 10 nM) was 0%, the inhibition at 0.1 µM ([2]; 100 nM) was 5% and the inhibition at 1 µM ([2]; 1000 nM) was -2%. The inhibition at 0.01 µM ([3]; 10 nM) was -6%, the inhibition at 0.1 µM ([3]; 100 nM) was -2% and the inhibition at 1 µM ([3]; 1000 nM) was -3%. It also gave an inhibition at 0.01 µM ([4]; 10 nM) of -2%, an inhibition at 0.1 µM ([4]; 100 nM) of -5% and an inhibition at 1 µM ([4]; 1000 nM) of -2%. The inhibition at 0.01 µM ([5]; 10 nM) was -7%, the inhibition at 0.1 µM ([5]; 100 nM) was -5% and the inhibition at 1 µM ([5]; 1000 nM) was 12%. It also gave an inhibition at 0.01 µM ([6]; 10 nM) of -5%, an inhibition at 0.1 µM ([6]; 100 nM) of -4% and an inhibition at 1 µM ([6]; 1000 nM) of -8%. For the same molecule, the inhibition at 0.01 µM ([7]; 10 nM) was -4%, the inhibition at 0.1 µM ([7]; 100 nM) was -5% and the inhibition at 1 µM ([7]; 1000 nM) was -3%. For the same molecule, the inhibition at 0.01 µM ([8]; 10 nM) was 2%, the inhibition at 0.1 µM ([8]; 100 nM) was -2% and the inhibition at 1 µM ([8]; 1000 nM) was 2%. For the same molecule, the inhibition at 0.01 µM ([9]; 10 nM) was 0%, the inhibition at 0.1 µM ([9]; 100 nM) was 10% and the inhibition at 1 µM ([9]; 1000 nM) was 43%. The inhibition at 0.01 µM ([10]; 10 nM) was 8%, the inhibition at 0.1 µM ([10]; 100 nM) was 3% and the inhibition at 1 µM ([10]; 1000 nM) was 13%. The inhibition at 0.01 µM ([11]; 10 nM) was 0%, the inhibition at 0.1 µM ([11]; 100 nM) was -5% and the inhibition at 1 µM ([11]; 1000 nM) was -7%. It also gave an inhibition at 0.01 µM ([12]; 10 nM) of 50%, an inhibition at 0.1 µM ([12]; 100 nM) of 83% and an inhibition at 1 µM ([12]; 1000 nM) of 93%. It also gave an inhibition at 0.01 µM ([13]; 10 nM) of 7%, an inhibition at 0.1 µM ([13]; 100 nM) of -1% and an inhibition at 1 µM ([13]; 1000 nM) of 6%. The inhibition at 0.01 µM ([14]; mTOR(h)) was -1%, the inhibition at 0.1 µM ([14]; mTOR(h)) was 2% and the inhibition at 1 µM ([14]; mTOR(h)) was 7%. For the same molecule, the inhibition at 0.01 µM ([14]; mTOR/FKBP12(h)) was 8%, the inhibition at 0.1 µM ([14]; mTOR/FKBP12(h)) was 12% and the inhibition at 1 µM ([14]; mTOR/FKBP12(h)) was 6%.
